Molecules are shown by their SMILES.

What is called melting point is the temperature, or range, at which the solid turns liquid. As to `CC(C)N(C(=O)C(C(F)(F)F)C(F)(F)F)C(C)C`, the melting point was 53 °C.
Then `Cc1ccccc1/C=C(\C#N)c1nc2ccccc2[nH]1`, with 210 to 211 °C; and `Cc1nn(C(C)(C)C)c(C)c1C=O`, with 56 to 61 °C.
Then `COc1cc(Br)cc(Br)c1`, with 41.5 °C; and `N#CCCCC#N`, with -29 °C; and `CNc1ccc2cc3ccc4c(c3nc2c1CO)COCN4S(C)(=O)=O`, with 205 °C.
For the compound `O=C(O)c1ccccc1-n1ccnc1`, the melting point lay in the range of 198 to 200 °C.
On to `O=S(=O)(NC(=S)Nc1ccccc1)c1ccccc1`, for which the melting point was in the range of 144 to 145 °C.
The compound `NC(=O)c1cc([N+](=O)[O-])ccc1Cl` showed a melting point of 179 °C.
Compound `CC(C)(C(=O)O)c1ccc(Cl)cc1` registered a melting point of 127 °C.
In turn, `CC(O)C#N` (stereo not drawn) gave a melting point of -40 °C.
The value for `Cc1cc(-c2ccccc2)nnc1NCCN1CCOCC1` was 122 °C; that for `CCCCCCCCCCCC(=O)Oc1ccccc1` was 24.5 °C; that for `COc1ccccc1N/N=C1\C(=O)N(CN2CCCCC2)N=C1C` was 148 °C.
In turn, `CC(C)(C)c1cc2c(O)c(c1)Cc1cc(C(C)(C)C)cc(c1O)Cc1cc(C(C)(C)C)cc(c1O)Cc1cc(C(C)(C)C)cc(c1O)C2` came in with a melting point of 300 °C.
For `O=S(=O)(c1ccc(Cl)cc1)c1cc(Cl)c(Cl)cc1Cl`, the melting point was 147 °C.
On to `Nc1ccc2nccnc2c1`, for which the melting point was 159 °C.
Compound `CC(=O)OCC1OC(C(N)=O)C(OC(C)=O)C(OC(C)=O)C1OC(C)=O` (stereo not drawn) came in with a melting point of 127 to 130 °C.
In the case of `CCCCCCCCCCCCCCCCCC(=O)Oc1ccccc1`, the melting point amounted to 52 °C.
Then `COC(=O)c1cc(OC)c(O)c(OC)c1`, with 106 °C; and `C/C(OCCc1ccc([N+](=O)[O-])cc1)=C(\C#N)c1ccccc1`, with 138 °C.
Consider `CCCCCNc1ccc(NCCCCC)c2c1C(=O)c1ccccc1C2=O`, for which the melting point amounted to 210 °C.
Then `Nc1oncc1-c1ccccn1`, with 133 to 136 °C.
Take `O=C(CCCCl)c1ccc(Cl)cc1`: the melting point turned out to be 30 °C.
Then `Cc1ccc(C(C)(C)C)cc1`, with -54 °C.
`Cc1cccc(N/N=C2/C(=O)N(c3ccccc3)N=C2C(F)(F)F)c1C` showed a melting point of 136 °C.
Then `Cc1cc(CO)c(O)c(CO)c1`, with 129 °C.
For `Cc1ccc(C)c2c1-c1nc3ccccc3nc1-2`, the melting point turned out to be 195 °C.
As for `CC(C)C[C@H]1OC[C@@H](C)CO1`, the melting point is below -21 °C.
`CC1(C)CCc2cc(S(=O)(=O)Cl)ccc2O1` gave a melting point of 92 to 94 °C.
In turn, `N#Cc1cc(-c2ccccc2)oc1N` displayed a melting point of 196 to 197 °C.
Consider `O=C(O)[C@@H]1CCCC[C@H]1C(=O)c1cccs1` (relative stereo), for which the melting point lay in the range of 179 to 184 °C.
In turn, `CC1CC2C3CCC4=CC(=O)C=CC4(C)C3C(=O)CC2(C)C1(O)C(=O)CO` (stereo not drawn) had a melting point of 202 °C.
Compound `CC1(C)C2CC[C@]1(CS(=O)(=O)O)C(=O)C2` displayed a melting point of 200 °C.
Compound `CC(=O)Nc1ccc(C(=O)O)cc1[N+](=O)[O-]` gave a melting point of 226 °C.
As to `CC(=O)c1ccccc1O`, the melting point is 5 °C.
`Brc1cc(Br)c(Oc2c(Br)cc(Br)c(Br)c2Br)cc1Br` registered a melting point of 171 to 173 °C.
On to `Cc1cccc(S)c1`, for which the melting point is -20 °C.
`CCOC(=O)Nc1ccc2nn(C3CCCC3)nc2c1` showed a melting point of 122 °C.
For the compound `Oc1ccc(Br)c2cccnc12`, the melting point was 124 °C.
The compound `Cc1cc(N=Nc2ccccc2)ccc1N=Nc1ccccc1` showed a melting point of 109 °C.
`ON=C(NN=C(Cl)C(F)(F)F)C(F)(F)F` showed a melting point of 119 °C.
Then `BrCCCCCCCBr`, with 41.7 °C.
Consider `CCc1ccccc1Nc1ccccc1CC`, for which the melting point is 29 °C.
For the compound `O=C(O)C(O)c1cccc(F)c1` (stereo not drawn), the melting point came to 96 °C.
The value for `CCC(C(=O)Nc1ccc(C)cc1)c1ccc(C)cc1` (stereo not drawn) was 118 °C; that for `COc1ccccc1N/N=C(/C#N)c1nc2ccccc2c(=O)[nH]1` was 255 °C.
`CC(=O)C(C(=O)OC1CC(C)CCC1C(C)C)C(C)C(C(C)=O)C(=O)OC1CC(C)CCC1C(C)C` (stereo not drawn) had a melting point of 200 °C.
`CC(=O)SC1CC2=CC(=O)CCC2(C)C2CCC3(C)C(CCC34CCC(=O)O4)C12` (stereo not drawn): the melting point was determined as 208 °C.
The compound `CCOC(OCC)C(N)=S` had a melting point of 91 to 94 °C.
Consider `COC1CC2C3(C)CCCC2(COC3)C2C(OC(C)=O)CC3C(C)C(=O)C12C3O` (stereo not drawn), for which the melting point was determined as 165 °C.
As for `CN[C@@H](Cc1ccc(O)cc1)C(=O)O`, the melting point turned out to be 293 °C.
Then `CC=CCC=CCCC(=O)C1OC1C(N)=O` (stereo not drawn), with 93.5 °C; and `CCOc1ccc(C=CC(=O)O)cc1`, with 195 to 197 °C.
For the compound `O=C(O)c1c(-c2ccccc2)nnc2ccccc12`, the melting point came to 216 °C.
In the case of `CC1C2Cc3ccc(O)cc3C1(C)CCN2CC1CC1` (stereo not drawn), the melting point was 202 °C.
The compound `CCCCOC(=O)c1ccccc1C(=O)O` gave a melting point of 73.5 °C.
Compound `COc1ccc(C(N)=O)cc1N` returned a melting point of 158 °C.
The value for `CC(NC(=O)C(F)(F)C(F)(F)C(F)(F)C(F)(F)C(F)(F)C(F)(F)C(F)(F)C(F)(F)F)c1ccccc1` (stereo not drawn) was 100 °C; that for `CC(=O)c1ccc(C)nc1` was 17.6 °C; that for `c1ccc(Cc2nc3ccccc3nc2Cc2ccccc2)cc1` was 118 °C.
`O=[N+]([O-])c1ccccc1OCCN1CCOCC1` yielded a melting point of 44 to 45 °C.
The compound `COc1cc2c(cc1O)C(Cc1ccc(OC)c(OC)c1)N(C)CC2` (stereo not drawn) had a melting point of 127 °C.
With `Ic1cccc2cccc(I)c12`, the melting point was found to be 106 °C.
For the compound `CCC(F)(F)C(=O)O`, the melting point was 8 °C.
`Nc1[nH]c(=O)[nH]c(=O)c1N=O` returned a melting point of 280 °C.
In the case of `O=c1occcc1O`, the melting point stood at 93.8 °C.
As for `O=C1C2=C(CCCC2)C(=O)N1CO`, the melting point is 80 to 84 °C.
In the case of `Nc1cnc2ccccc2c1N`, the melting point was 183 to 185 °C.
As to `COC(=O)c1ccc(OC)c(Br)c1`, the melting point was 97 °C.
`Cc1ccc(C(=O)C=Cc2ccc(Cl)cc2)cc1` came in with a melting point of 122 °C.
Compound `CCN(CC)c1nc2ccccc2c(=O)n1-c1ccccc1` returned a melting point of 109 °C.
The value for `COC(=O)c1cc(Br)cc(Br)c1` was 63 °C.
`NC(=O)c1cc(Cl)cc(Cl)c1N`: the melting point was found to be 162 °C.
With `CCCCCCCCCCCC(=O)N(C)CC(=O)O`, the melting point was 44 to 48 °C.
The compound `Cc1ccc2nc(C(F)(F)F)cc(Cl)c2c1` had a melting point of 62 to 65 °C.
Then `CCCCCCCCCCCC(=O)OC1OC(CO)C(OC2OC(CO)C(O)C(O)C2O)C(O)C1O` (stereo not drawn), with 193 to 197 °C; and `COc1cc(OC)cc(C(N)=O)c1`, with 144 °C.

These data come from a melting point compilation (Tetko et al.).
